Measured values: article PMC6588349 (eLife, 2019)
Read-outs that look alike come from different tables or passages of the source.

Assays:
SNAP-mGluR2-TMD = molecular target: T1, SNAP-mGluR2-TMD (Rattus norvegicus, UniProt P31421); test: Inter-TMD FRET assay in living HEK 293T cells; type: cell-based; conditions: for EC50: normalized to saturating LY48; for inter-TMD FRET response to drug alone: drug applied alone, XA up to 50 µM
T1 construct: mGluR2-TMD (rat) starts at Q558; expressed in transfected cells; host or cells: HEK 293T
Source text: We therefore sought to develop a FRET sensor that reports on activation-associated motions driven by allosteric drugs and hypothesized that an N-terminal fluorophore on the isolated TMD should report on any inter-TMD rearrangement while allowing the receptor to maintain G-protein coupling (Figure 3A). […] To test if LBD-independent inter-TMD rearrangement is a feature of other mGluRs, we asked if donor and acceptor conjugation to SNAP-mGluR5-TMD would allow for the detection a FRET response to a PAM.
Cells were cultured in DMEM with 5% FBS on poly-L-lysine-coated glass coverslips. DNA plasmids were transfected into cells using Lipofectamine 3000 (Thermo Fisher). […] For single-molecule pulldown (SiMPull) experiments, cells were transfected with 0.7 μg DNA of HA and SNAP-tagged receptor constructs, unless otherwise noted. For FRET experiments, cells were transfected with either SNAP-tagged constructs at 0.5–0.7 μg of DNA/well or SNAP and CLIP-tagged constructs at a ratio of 1:2 with 0.3 μg of SNAP DNA/well.
Fluorophores were diluted in EX solution, which was also used to wash coverslips following labeling and prior to mounting on the microscope. After labeling, cells were mounted on an inverted microscope (Olympus IX73) and imaged with a 60x objective. […] Clusters of cells were analyzed together using ImageJ and FRET was calculated as FRET=(IAcceptor)/(IDonor +IAcceptor) where I is fluorescence intensity. No corrections were made for bleed-through between channels or the contribution of donor-donor or acceptor-acceptor dimers as analysis was limited to relative FRET changes between drug treatments rather than absolute FRET values. […] FRET changes calculated for dose–response curves were normalized to the response to saturating […] applied within the same recording and dose–response curves were obtained from multiple cell clusters and averaged from at least three separate experiments. Dose–response curves were fit using Prism (Graphpad). All drugs were purchased from Tocris, prepared in EX solution, and delivered with a gravity-driven perfusion system. For kinetics measurements a pressurized perfusion system (Automate Scientific) was used to produce a flow rate of 0.5 mL/s. Kinetic analysis was performed in Microsoft Excel. The time between 10% and 90% FRET increase or decrease was determined manually. For photo-bleaching/donor-recovery experiments, images were taken in donor and acceptor channels at baseline and again followed by a 1 min exposure to 640 nm laser illumination at maximum intensity. All experiments were performed at room temperature. All data were produced from at least two separate transfections for each condition.

[1] = Gramicidin-based fluorescence quench assay for changes of lipid bilayer properties (LUVs); type: physicochemical; conditions: 1 to 10 µM
Source text: To further probe this, we used a fluorescence quench assay for drug-induced changes of lipid bilayer properties ([Ingólfsson and Andersen, 2010]) (Figure 6—figure supplement 3A; see Materials and methods), in which changes in gramicidin channel function is used as a reporter of membrane modification. […] The persistent BINA response is thus consistent with a model where BINA readily partitions into the plasma membrane lipid bilayer (and possibly other lipidic compartments).
The gramicidin-based fluorescence assay has been described previously ([Ingólfsson and Andersen, 2010]). In brief, large unilamellar vesicles (LUVs), loaded with intravesicular ANTS were prepared from DC22:1PC and gramicidin (weight ratio 1000:1, corresponding to a ~ 2000:1 molar ratio) using freeze-drying, extrusion and size-exclusion chromatography; the final lipid concentration was 4–5 mM; the suspension was stored in the dark at 12.5°C for a maximum of 7 days. […] Before use, the LUV-ANTS stock was diluted to 200–250 μM lipid with NaNO3 buffer (140 mM NaNO3, 10 mM HEPES, pH 7).
The NAMs and PAMs (dissolved in DMSO) or DMSO (as control) were added to a LUV-ANTS sample and equilibrated at 25°C in the dark for 10 min. before the mixture was loaded into a stopped-flow spectrofluorometer (Applied Photophysics SX.20, Leatherhead, UK) and mixed with either NaNO3 buffer or TlNO3 buffer; Tl^+ (thallous ion) is a gramicidin channel-permeant quencher of the ANTS fluorescence. Samples were excited at 352 nm and the fluorescence signal above 455 nm was recorded in the absence (four successive trials) or presence (nine successive trials) of the quencher. All the NAM and PAM derivatives fluoresce to varying degrees and addition of these drugs to LUVs in control experiments without gA or Tl^+ increased the fluorescence signal, and each signal was normalized to account for the compound's fluorescence. […] The quench rate (Rate), the rate of Tl^+ influx, was determined at 2 ms: Rate=β/τ0⋅(t/τ0)^β−1|2ms […]

[2] = SNAP-mGluR2-TMD labeled with donor and acceptor, mean ± s.e.m., read-out: inter-TMD FRET increase EC50

T1 sequence (P31421 558-872 limits assumed): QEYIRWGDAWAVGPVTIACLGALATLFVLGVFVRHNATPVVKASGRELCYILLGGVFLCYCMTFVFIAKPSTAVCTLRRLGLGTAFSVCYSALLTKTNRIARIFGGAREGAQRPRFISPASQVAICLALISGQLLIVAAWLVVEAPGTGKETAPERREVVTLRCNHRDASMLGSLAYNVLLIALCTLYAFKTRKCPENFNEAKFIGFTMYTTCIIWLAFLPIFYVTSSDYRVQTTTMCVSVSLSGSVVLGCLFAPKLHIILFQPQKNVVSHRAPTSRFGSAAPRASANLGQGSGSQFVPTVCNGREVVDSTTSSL

SMILES	EC50 (SNAP-mGluR2-TMD; SNAP- and CLIP-mGluR2-TMD co-expressed, read-out: inter-TMD FRET increase EC50, co-expression of SNAP- and CLIP-mGluR2-TMD)	EC50 (SNAP-mGluR2-TMD; [2])	EC50 (SNAP-mGluR2-TMD; co-expression of dominant negative Gα protein, read-out: inter-TMD FRET increase EC50 with dominant negative G protein)	inter-TMD FRET response to drug alone (SNAP-mGluR2-TMD)	inter-TMD FRET response onset (SNAP-mGluR2-TMD; saturating concentrations)	inter-TMD FRET response reversal (SNAP-mGluR2-TMD; saturating concentrations)	changes in gramicidin channel function (membrane properties) [1]	effect on LY48-induced inter-TMD FRET response (SNAP-mGluR2-TMD; NAM versus LY48)	effect on BINA-induced inter-TMD FRET increase (SNAP-mGluR2-TMD; applied after BINA)	effect on Ro 64-induced inter-TMD FRET increase (SNAP-mGluR2-TMD; applied after Ro 64)	inter-TMD FRET OFF kinetics (SNAP-mGluR2-TMD)
COc1ccccc1Oc1ccc(N(Cc2cccnc2)S(=O)(=O)CC(F)(F)F)cc1 [LY48]	0.9 ± 0.1 µM	1.2 ± 0.1 µM	0.6 ± 0.04 µM	readily detectable FRET increase	10 to 40 s	< 2 min					
N#Cc1cc(C2=Nc3ccc(Br)cc3NC(=O)C2)ccn1 [MNI 137]				minimal FRET changes			do not alter membrane properties	blocked	reversed the BINA-induced FRET increase back to baseline	partially reverse	
Clc1cccc(Cl)c1/C(=C/n1cncn1)OC1CCCCCC1 [Ro 64]		2.1 ± 0.2 µM		robust, dose-dependent inter-TMD FRET increases			do not alter membrane properties				very slow OFF kinetics
